# Patent US9765092B2, “Tricyclic piperidine compounds” (ACTELION PHARMACEUTICALS LTD, priority 2013, dated 2017)
# Molecular target: human TPH1 (Homo sapiens (Human), UniProt P17752)
# Experiment: Biochemical in vitro assay using fluorescence readout (TPH1 inhibition)
# Conditions: not given
# Chain of human TPH1 (P17752 whole entry): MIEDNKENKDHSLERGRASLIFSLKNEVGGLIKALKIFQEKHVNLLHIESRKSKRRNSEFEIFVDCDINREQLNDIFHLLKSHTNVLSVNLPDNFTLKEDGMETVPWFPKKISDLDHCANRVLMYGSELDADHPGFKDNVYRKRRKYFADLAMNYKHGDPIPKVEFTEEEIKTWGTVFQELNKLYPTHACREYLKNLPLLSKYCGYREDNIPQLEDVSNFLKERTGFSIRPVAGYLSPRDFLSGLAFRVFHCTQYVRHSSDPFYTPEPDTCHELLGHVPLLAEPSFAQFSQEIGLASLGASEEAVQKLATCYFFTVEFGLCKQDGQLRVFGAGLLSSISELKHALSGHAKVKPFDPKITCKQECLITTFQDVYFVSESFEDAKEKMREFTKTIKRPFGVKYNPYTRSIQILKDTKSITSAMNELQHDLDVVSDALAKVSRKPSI
row,SMILES,IC50
1,"Cc1ccc(C2c3c(nc4sc(C)nn34)CCN2C(=O)COc2ccc(NS(C)(=O)=O)nc2Cl)c(F)c1 (stereo not shown) [Example 1.53.2, N-(6-chloro-5-(2-(5-(2-fluoro-4-methylphenyl)-2-methyl-7,8-dihydro-[1,3,4]thiadiazolo[2′,3′:2,3]imidazo[4,5-c]pyridin-6(5H)-yl)-2-oxoethoxy)pyridin-2-yl)methanesulfonamide]",0.012 µM

# Same assay, conditions: full length human TPH1, 40 μM L-tryptophan, 15° C., 60 minutes, fluorescence at 540 nm; mean if determined several times
row,SMILES,IC50
1,"Cc1nn2c3c(nc2s1)CCN(C(=O)COc1ccc(N2CCOCC2)nc1Cl)C3c1nc(C(=O)N(C)C)co1 (stereo not shown) [Example 1.43.1, 2-(6-(2-((2-Chloro-6-morpholinopyridin-3-yl)oxy)acetyl)-2-methyl-5,6,7,8-tetrahydro-[1,3,4]thiadiazolo[2′,3′:2,3]imidazo[4,5-c]pyridin-5-yl)-N,N-dimethyloxazole-4-carboxamide]",0.026 µM
2,"CNC(=O)c1csc(C2c3c(nc4sc(C)nn34)CCN2C(=O)COc2ccc(C(F)(F)F)cc2Cl)n1 (stereo not shown) [Example 1.44.1, 2-(6-(2-(2-Chloro-4-(trifluoromethyl)phenoxy)acetyl)-2-methyl-5,6,7,8-tetrahydro-[1,3,4]thiadiazolo[2′,3′:2,3]imidazo[4,5-c]pyridin-5-yl)-N-methylthiazole-4-carboxamide]",0.311 µM
3,"CNC(=O)c1csc(C2c3c(nc4sc(C)nn34)CCN2C(=O)COc2ccc(N3CCOCC3)nc2Cl)n1 (stereo not shown) [Example 1.44.2, 2-(6-(2-((2-Chloro-6-morpholinopyridin-3-yl)oxy)acetyl)-2-methyl-5,6,7,8-tetrahydro-[1,3,4]thiadiazolo[2′,3′:2,3]imidazo[4,5-c]pyridin-5-yl)-N-methylthiazole-4-carboxamide]",0.005 µM
4,"Cc1nn2c3c(nc2s1)CCN(C(=O)COc1ccc(N2CCOCC2)nc1Cl)C3c1csc(CO)c1 (stereo not shown) [Example 1.45.1, 2-((2-Chloro-6-morpholinopyridin-3-yl)oxy)-1-(5-(5-(hydroxymethyl)-thiophen-3-yl)-2-methyl-7,8-dihydro-[1,3,4]thiadiazolo[2′,3′:2,3]imidazo[4,5-c]pyridin-6(5H)-yl)ethanone]",0.033 µM
5,"Cc1nn2c3c(nc2s1)CCN(C(=O)COc1ccc(N2CCOCC2)nc1Cl)C3c1cc(C(=O)O)cs1 (stereo not shown) [Example 1.46.1, 5-(6-(2-((2-chloro-6-morpholinopyridin-3-yl)oxy)acetyl)-2-methyl-5,6,7,8-tetrahydro-[1,3,4]thiadiazolo[2′,3′:2,3]imidazo[4,5-c]pyridin-5-yl)thiophene-3-carboxylic acid]",0.018 µM
6,"Cc1nn2c3c(nc2s1)CCN(C(=O)COc1ccc(N2CCOCC2)nc1Cl)C3c1nc(C(N)=O)cs1 (stereo not shown) [Example 1.48.1, 2-(6-(2-((2-Chloro-6-morpholinopyridin-3-yl)oxy)acetyl)-2-methyl-5,6,7,8-tetrahydro-[1,3,4]thiadiazolo[2′,3′:2,3]imidazo[4,5-c]pyridin-5-yl)thiazole-4-carboxamide]",0.005 µM
7,"Cc1nn2c3c(nc2s1)CCN(C(=O)COc1ccc(N2CCOCC2)nc1Cl)C3c1cnc(N2CC(F)(F)C2)s1 (stereo not shown) [Example 1.49.1, 2-((2-Chloro-6-morpholinopyridin-3-yl)oxy)-1-(5-(2-(3,3-difluoro-azetidin-1-yl)thiazol-5-yl)-2-methyl-7,8-dihydro-[1,3,4]thiadiazolo[2′,3′:2,3]imidazo[4,5-c]pyridin-6(5H)-yl)-ethanone]",0.015 µM
8,"CCNc1nn(C)c(C2c3c(nc4sc(C)nn34)CCN2C(=O)COc2ccc(N3CCOCC3)nc2Cl)c1C (stereo not shown) [Example 1.51.1, 2-((2-Chloro-6-morpholinopyridin-3-yl)oxy)-1-(5-(3-(ethylamino)-1,4-dimethyl-1H-pyrazol-5-yl)-2-methyl-7,8-dihydro-[1,3,4]thiadiazolo[2′,3′:2,3]imidazo[4,5-c]pyridin-6(5H)-yl)ethanone]",0.058 µM
9,"Cc1nn2c3c(nc2s1)CCN(C(=O)COc1ccc(N2CCOCC2)nc1Cl)C3c1nc(N)sc1F (stereo not shown) [Example 1.52.1, 1-(5-(2-Amino-5-fluorothiazol-4-yl)-2-methyl-7,8-dihydro-[1,3,4]thiadiazolo[2′,3′:2,3]-imidazo[4,5-c]pyridin-6(5H)-yl)-2-((2-chloro-6-morpholinopyridin-3-yl)oxy)ethanone]",0.006 µM

# Same assay, conditions: human TPH1, fluorescence readout
row,SMILES,IC50
1,"CNC(=O)c1ccc(C2c3c(nc4sc(C)nn34)CCN2C(=O)COc2ccc(C(=O)N(C)C)nc2Cl)o1 (stereo not shown) [Example 1.42.1, 6-chloro-N,N-dimethyl-5-(2-(2-methyl-5-(5-(methylcarbamoyl)furan-2-yl)-7,8-dihydro-[1,3,4]thiadiazolo[2′,3′:2,3]imidazo[4,5-c]pyridin-6(5H)-yl)-2-oxoethoxy)picolinamide]",0.049 µM
2,"CNC(=O)c1ccc(C2c3c(nc4sc(C)nn34)CCN2C(=O)COc2ccc(N3CCOCC3)nc2Cl)o1 (stereo not shown) [Example 1.42.2, 5-(6-(2-((2-chloro-6-morpholinopyridin-3-yl)oxy)acetyl)-2-methyl-5,6,7,8-tetrahydro-[1,3,4]thiadiazolo[2′,3′:2,3]imidazo[4,5-c]pyridin-5-yl)-N-methylfuran-2-carboxamide]",0.011 µM
3,"CCNC(=O)Nc1nc(C2c3c(nc4sc(C)nn34)CCN2C(=O)COc2ccc(N3CCOCC3)nc2Cl)cs1 (stereo not shown) [Example 1.47.1, 1-(4-(6-(2-((2-chloro-6-morpholinopyridin-3-yl)oxy)acetyl)-2-methyl-5,6,7,8-tetrahydro-[1,3,4]thiadiazolo[2′,3′:2,3]imidazo[4,5-c]pyridin-5-yl)thiazol-2-yl)-3-ethylurea]",0.018 µM
4,"COC1(c2csc(C3c4c(nc5sc(C)nn45)CCN3C(=O)COc3ccc(N4CCOCC4)nc3Cl)c2)COC1 (stereo not shown) [Example 1.50.1, 2-((2-chloro-6-morpholinopyridin-3-yl)oxy)-1-(5-(4-(3-methoxyoxetan-3-yl)thiophen-2-yl)-2-methyl-7,8-dihydro-[1,3,4]thiadiazolo[2′,3′:2,3]imidazo[4,5-c]pyridin-6(5H)-yl)ethanone]",0.006 µM
5,"Cc1ccc(C2c3c(nc4sc(C)nn34)CCN2C(=O)COc2ccc(-c3ncco3)nc2Cl)c(F)c1 (stereo not shown) [Example 1.53.1, 2-((2-chloro-6-(oxazol-2-yl)pyridin-3-yl)oxy)-1-(5-(2-fluoro-4-methylphenyl)-2-methyl-7,8-dihydro-[1,3,4]thiadiazolo[2′,3′:2,3]imidazo[4,5-c]pyridin-6(5H)-yl)ethanone]",0.009 µM
6,"Cc1ccc(C2c3c(nc4sc(C)nn34)CCN2C(=O)COc2ccc(C(=O)N(C)C3CC3)nc2Cl)c(F)c1 (stereo not shown) [Example 1.53.3, 6-chloro-N-cyclopropyl-5-(2-(5-(2-fluoro-4-methyl-phenyl)-2-methyl-7,8-dihydro-[1,3,4]thiadiazolo-[2′,3′:2,3]imidazo[4,5-c]pyridin-6(5H)-yl)-2-oxoethoxy)-N-methylpicolinamide]",0.015 µM
7,Cc1ccc([C@H]2c3c(nc4sc(C)nn34)CCN2C(=O)COc2ccc(NS(C)(=O)=O)nc2Cl)c(F)c1 [Example 1.53.4],0.008 µM
8,"Cc1nn2c3c(nc2s1)CCN(C(=O)COc1ccc(C(=O)N(C)C)nc1Cl)C3c1ccc(OC(F)F)cc1F (stereo not shown) [Example 1.54.1, 6-chloro-5-(2-(5-(4-(difluoromethoxy)-2-fluorophenyl)-2-methyl-7,8-dihydro-[1,3,4]thiadiazolo[2′,3′:2,3]imidazo[4,5-c]pyridin-6(5H)-yl)-2-oxoethoxy)-N,N-dimethylpicolinamide]",0.014 µM
9,"Cc1nn2c3c(nc2s1)CCN(C(=O)COc1ccc(C(=O)N(C)C)nc1Cl)C3c1ccc(F)cc1F (stereo not shown) [Example 1.55.1, 6-chloro-5-(2-(5-(2,4-difluorophenyl)-2-methyl-7,8-dihydro-[1,3,4]thiadiazolo[2′,3′:2,3]imidazo[4,5-c]pyridin-6(5H)-yl)-2-oxoethoxy)-N,N-dimethylpicolinamide]",0.019 µM
10,"Cc1nn2c3c(nc2s1)CCN(C(=O)COc1ccc(C(=O)N(C)C)nc1Cl)C3c1ccc(C(F)(F)F)cc1F (stereo not shown) [Example 1.56.1, 6-chloro-5-(2-(5-(2-fluoro-4-(trifluoromethyl)phenyl)-2-methyl-7,8-dihydro-[1,3,4]thiadiazolo[2′,3′:2,3]imidazo[4,5-c]pyridin-6(5H)-yl)-2-oxoethoxy)-N,N-dimethylpicolinamide]",0.015 µM
11,"Cc1nn2c3c(nc2s1)CCN(C(=O)COc1ccc(C(=O)N(C)C)nc1Cl)C3c1cc(F)ccc1F (stereo not shown) [Example 1.57.1, 6-chloro-5-(2-(5-(2,5-difluorophenyl)-2-methyl-7,8-dihydro-[1,3,4]thiadiazolo[2′,3′:2,3]imidazo[4,5-c]pyridine-6(5H)-yl)-2-oxoethoxy)-N,N-dimethylpicolinamide]",0.03 µM
12,"Cc1nn2c3c(nc2s1)CCN(C(=O)COc1ccc(C(=O)N(C)C)nc1Cl)C3c1cccc(Cl)c1F (stereo not shown) [Example 1.58.1, 6-chloro-5-(2-(5-(3-chloro-2-fluorophenyl)-2-methyl-7,8-dihydro-[1,3,4]thiadiazolo[2′,3′:2,3]imidazo[4,5-c]pyridin-6(5H)-yl)-2-oxoethoxy)-N,N-dimethylpicolinamide]",0.042 µM
13,"Cc1ncc(C2c3c(nc4sc(C)nn34)CCN2C(=O)COc2ccc(C(=O)N(C)C)nc2Cl)s1 (stereo not shown) [Example 1.59.1, 6-chloro-N,N-dimethyl-5-(2-(2-methyl-5-(2-methylthiazol-5-yl)-7,8-dihydro-[1,3,4]thiadiazolo[2′,3′:2,3]imidazo[4,5-c]pyridin-6(5H)-yl)-2-oxoethoxy)picolinamide]",0.037 µM
14,"Cc1nn2c3c(nc2s1)CCN(C(=O)COc1ccc(C(=O)N(C)C)nc1Cl)C3c1cnc(-c2ccccc2)s1 (stereo not shown) [Example 1.60.1, 6-chloro-N,N-dimethyl-5-(2-(2-methyl-5-(2-phenylthiazol-5-yl)-7,8-dihydro-[1,3,4]thiadiazolo[2′,3′:2,3]imidazo[4,5-c]pyridin-6(5H)-yl)-2-oxoethoxy)picolinamide]",0.014 µM
15,"Cc1nn2c3c(nc2s1)CCN(C(=O)COc1ccc(C(=O)N(C)C)nc1Cl)C3c1ccc(C)c(F)c1F (stereo not shown) [Example 1.61.1, 6-chloro-5-(2-(5-(2,3-difluoro-4-methylphenyl)-2-methyl-7,8-dihydro-[1,3,4]thiadiazolo[2′,3′:2,3]imidazo[4,5-c]pyridin-6(5H)-yl)-2-oxoethoxy)-N,N-dimethylpicolinamide]",0.007 µM
